Data as given in ChEMBL document CHEMBL1140116, “Potent s-cis-locked bithiazole correctors of DeltaF508 cystic fibrosis transmembrane conductance regulator cellular processing for cystic fibrosis therapy” (J Med Chem, 2008).
The source made the active and inactive calls. No cut-off for these calls is given here.

Molecular target: Cystic fibrosis transmembrane conductance regulator (Homo sapiens) (UniProt P13569)
Test: Corrector activity at human CFTR deltaF508 mutant expressed in FRT cells assessed as iodide influx at 25 uM
Assay type: cell-based

Cystic fibrosis transmembrane conductance regulator (Homo sapiens), sequence (P13569 whole entry, looked up): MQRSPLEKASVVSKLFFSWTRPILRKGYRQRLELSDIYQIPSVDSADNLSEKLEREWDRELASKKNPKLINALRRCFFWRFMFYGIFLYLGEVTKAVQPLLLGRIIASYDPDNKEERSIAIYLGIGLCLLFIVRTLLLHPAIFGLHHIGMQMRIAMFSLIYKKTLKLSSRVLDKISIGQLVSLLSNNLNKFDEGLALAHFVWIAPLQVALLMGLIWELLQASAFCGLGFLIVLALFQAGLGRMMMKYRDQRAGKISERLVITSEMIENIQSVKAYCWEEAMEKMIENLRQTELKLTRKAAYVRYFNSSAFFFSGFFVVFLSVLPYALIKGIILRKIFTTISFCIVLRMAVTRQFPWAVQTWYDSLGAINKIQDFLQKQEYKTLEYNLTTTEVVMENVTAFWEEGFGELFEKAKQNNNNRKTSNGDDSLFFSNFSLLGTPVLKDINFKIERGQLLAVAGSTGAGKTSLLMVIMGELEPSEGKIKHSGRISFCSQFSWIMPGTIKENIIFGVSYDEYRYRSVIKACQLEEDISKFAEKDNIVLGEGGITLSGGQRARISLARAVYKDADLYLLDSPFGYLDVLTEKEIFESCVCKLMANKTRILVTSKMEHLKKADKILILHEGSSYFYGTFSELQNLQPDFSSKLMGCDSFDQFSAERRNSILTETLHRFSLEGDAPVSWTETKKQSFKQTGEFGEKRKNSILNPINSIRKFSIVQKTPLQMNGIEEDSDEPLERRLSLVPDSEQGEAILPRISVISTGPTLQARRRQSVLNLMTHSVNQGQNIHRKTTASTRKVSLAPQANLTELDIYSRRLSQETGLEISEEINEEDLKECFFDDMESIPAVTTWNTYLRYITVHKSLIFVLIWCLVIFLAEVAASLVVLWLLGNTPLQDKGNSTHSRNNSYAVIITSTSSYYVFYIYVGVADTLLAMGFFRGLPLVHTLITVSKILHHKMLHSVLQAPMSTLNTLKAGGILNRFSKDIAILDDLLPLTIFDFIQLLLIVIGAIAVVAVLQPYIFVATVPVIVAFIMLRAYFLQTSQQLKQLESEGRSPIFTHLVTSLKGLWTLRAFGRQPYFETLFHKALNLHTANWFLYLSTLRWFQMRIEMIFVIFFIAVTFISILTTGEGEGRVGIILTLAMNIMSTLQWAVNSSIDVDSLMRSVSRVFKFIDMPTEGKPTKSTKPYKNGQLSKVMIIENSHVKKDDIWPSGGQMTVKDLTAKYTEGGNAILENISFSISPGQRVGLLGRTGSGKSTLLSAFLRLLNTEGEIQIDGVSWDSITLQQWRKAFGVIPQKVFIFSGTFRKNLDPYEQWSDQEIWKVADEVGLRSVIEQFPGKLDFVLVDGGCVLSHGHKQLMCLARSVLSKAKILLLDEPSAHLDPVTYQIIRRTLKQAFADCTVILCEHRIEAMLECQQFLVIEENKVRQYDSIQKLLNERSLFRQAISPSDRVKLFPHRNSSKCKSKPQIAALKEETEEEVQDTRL

| Activity | SMILES |
| --- | --- |
| inactive | COc1ccc(Cl)cc1Nc1nc(C)c(-c2csc(NC(=O)C(C)(C)C)n2)s1 |
| inactive | COc1ccc(Cl)cc1Nc1nc(-c2cccc(NC(=O)C(C)(C)C)c2)cs1 |

More lines, now with the values behind:

| SMILES | Activity |
| --- | --- |
| COc1ccc(Cl)cc1Nc1nc(-c2sc(NC(=O)C(C)(C)C)nc2C)cs1 | Active |
| COc1ccc(Cl)cc1Nc1nc2c(s1)CCCc1nc(NC(=O)C(C)(C)C)sc1-2 | Active |
| COc1ccc(Cl)cc1Nc1nc(-c2cnc(NC(=O)C(C)(C)C)s2)cs1 | Active |
| COc1ccc(Cl)cc1Nc1nc(-c2cccc(NC(=O)C(C)(C)C)c2)c(C)s1 | inactive |
